Data taken from the NIST ThermoML archive (doi:10.1016/j.jct.2017.05.001).

Test: wn = mass fraction of the nth substance listed
Conditions: Liquid; for mass density: Vibrating tube method

OCCNCCO [diethanolamine] + O
viscosity [mPa·s]
Conditions	w1 = 0.0993	w1 = 0.1	w1 = 0.2	w1 = 0.3	w1 = 0.3002	w1 = 0.3997	w1 = 0.4
313.15 K, 30000 kPa, Falling or rolling sphere viscometry	0.9226	–	1.312	–	2.022	3.303	–
313.15 K, 40000 kPa, Falling or rolling sphere viscometry	0.9253	–	1.318	–	2.039	3.361	–
313.15 K, 60000 kPa, Falling or rolling sphere viscometry	0.9334	–	1.335	–	2.08	3.438	–
313.15 K, 80000 kPa, Falling or rolling sphere viscometry	0.9414	–	1.353	–	2.119	3.538	–
313.15 K, 100000 kPa, Falling or rolling sphere viscometry	0.9509	–	1.371	–	2.158	3.625	–
333.15 K, 100 kPa, Concentric cylinders viscometry	–	0.64	0.871	1.248	–	–	1.864
333.15 K, 100 kPa, Falling or rolling sphere viscometry	0.6268	–	0.8581	–	1.247	1.885	–
333.15 K, 5000 kPa, Falling or rolling sphere viscometry	0.6258	–	0.8575	–	1.243	1.872	–
333.15 K, 10000 kPa, Falling or rolling sphere viscometry	0.6274	–	0.8602	–	1.248	1.886	–
333.15 K, 15000 kPa, Falling or rolling sphere viscometry	0.6269	–	0.8632	–	1.254	1.9	–
333.15 K, 20000 kPa, Falling or rolling sphere viscometry	0.6303	–	0.8673	–	1.258	1.912	–
333.15 K, 25000 kPa, Falling or rolling sphere viscometry	0.6312	–	0.8717	–	1.265	1.896	–
333.15 K, 30000 kPa, Falling or rolling sphere viscometry	0.6339	–	0.8763	–	1.271	1.943	–
333.15 K, 40000 kPa, Falling or rolling sphere viscometry	0.6383	–	0.8845	–	1.283	1.973	–
333.15 K, 60000 kPa, Falling or rolling sphere viscometry	0.6452	–	0.8989	–	1.312	2.029	–
333.15 K, 80000 kPa, Falling or rolling sphere viscometry	0.6532	–	0.9136	–	1.337	2.086	–
333.15 K, 100000 kPa, Falling or rolling sphere viscometry	0.6623	–	0.9264	–	1.365	2.136	–

mass density [kg/m3]
Conditions	w1 = 0.0993	w1 = 0.2	w1 = 0.3002	w1 = 0.3997
313.15 K, 30000 kPa	1015.1	1025.8	1037.1	1048.7
313.15 K, 40000 kPa	1019.1	1029.7	1040.7	1052.3
313.15 K, 50000 kPa	1022.8	1033.2	1044.1	1055.6
313.15 K, 60000 kPa	1026.6	1036.9	1047.6	1059
313.15 K, 70000 kPa	1030.4	1040.4	1051	1062.2
313.15 K, 80000 kPa	1033.9	1043.8	1054.3	1065.4
313.15 K, 90000 kPa	1037.3	1047.1	1057.5	1068.5
313.15 K, 100000 kPa	1040.9	1050.6	1060.8	1071.6
313.15 K, 110000 kPa	1044.4	1053.9	1063.9	1074.7
313.15 K, 120000 kPa	1047.7	1057.1	1067.1	1077.7
313.15 K, 130000 kPa	1051.1	1060.3	1070.2	1080.7
313.15 K, 140000 kPa	1054.4	1063.5	1073.3	1083.6
333.15 K, 100 kPa	993.4	1004.2	1015.4	1026.6
333.15 K, 500 kPa	993.7	1004.4	1015.5	1026.8
333.15 K, 1000 kPa	993.9	1004.6	1015.7	1027
333.15 K, 2000 kPa	994.3	1005	1016.2	1027.4
333.15 K, 5000 kPa	995.5	1006.2	1017.3	1028.5
333.15 K, 10000 kPa	997.6	1008.2	1019.3	1030.4
333.15 K, 15000 kPa	999.6	1010.2	1021.2	1032.3
333.15 K, 20000 kPa	1001.6	1012.1	1023.1	1034.2
333.15 K, 30000 kPa	1005.7	1016	1026.9	1037.8
333.15 K, 40000 kPa	1009.7	1020	1030.6	1041.6
333.15 K, 50000 kPa	1013.4	1023.6	1034.1	1045
333.15 K, 60000 kPa	1017.2	1027.1	1037.7	1048.4
333.15 K, 70000 kPa	1020.9	1030.8	1041.1	1051.8
333.15 K, 80000 kPa	1024.5	1034.2	1044.4	1055
333.15 K, 90000 kPa	1028	1037.5	1047.7	1058.2
333.15 K, 100000 kPa	1031.5	1041	1051.1	1061.5
333.15 K, 110000 kPa	1034.9	1044.2	1054.3	1064.6
333.15 K, 120000 kPa	1038.4	1047.7	1057.5	1067.8
